In patent US20090104598A1, “Dopamine D2 receptor gene variants” (CENTRE FOR ADDICTION AND MENTAL HEALTH, priority 2006, published 2009):

What was measured:
[1] = clinical; conditions: human, in vivo
Source text: Thus, % Score Change=(6 Month Score−Baseline Score)/(Baseline Score).

[2] = treatment refractory patients; Miller 1996; cited from earlier work

In the case of `CN1CCN(C2=Nc3cc(Cl)ccc3Nc3ccccc32)CC1` [clozapine], the concentration at 6 month [1] is listed as 399 ng/mL and the “blood clozapine threshold level that increases likelihood of clinical response” value [2] is listed as 350 ng/mL.
